Experimental data as given in patent US4400517A, “Phosphoric esters derived from 1,2,4-triazole having an insecticidal, nematocidal and acaricidal action, and their preparation” (priority 1976, dated 1983).
Like-named read-outs stand apart in the source and are kept apart here.

Experiments:
Pieris brassicae = assay: Biological activity on Pieris brassicae (Lepidoptera); format: in vivo; conditions: 48 h
Description: (2) Biological activity on Pieris brassicae (Lepidotera)
Cut-off cauliflower leaves were sprinkled with an aqueous dispersion of the products under examination (see TABLE 5).
After drying, the leaves were infested with 5-day old larvae. The percentage of mortality of the larvae (untreated leaves=0) was determined after 48 hours from treatment.

Culex pipiens = assay: Biological activity on Culex pipiens larvae (Diptera); format: in vivo; conditions: for mortality at 0.2 ppm: 24 h, 0,2 ppm
Description: (4) Biological activity on Culex pipiens (Diptera)
Into glasses containing an aqueous dispersion of the products under examination (see Tables 4 and 5) there were introduced mosquito larvae of third and fourth age.
The mortality percentage of the larvae (glasses containing pure water=0) was determined after 24 hours from treatment.

[1] = Toxicity on albino rats by oral administration; conditions: rat, in vivo
Spodoptera littoralis = assay: Biological activity on Spodoptera littoralis (Lepidoptera); format: in vivo; conditions: for mortality at 0.01 %: 48 h, 0,1%o
Description: (7) Biological activity on Spodoptera littoralis (Lepidoptera)
Cut tobacco leaves were sprinkled with an aqueous dispersion of the products under examination (see Tables 4 and 5).
After drying, the leaves were infested with 5-day old larvae.
The percentage of mortality of the larvae was determined after 48 hours from treatment (untreated leaves, mortality=0).

Meloidogyne icognita = assay: Biological activity on Meloidogyne icognita (Nematoda); format: in vivo; conditions: 20 ppm; Table 4
Description: (8) Biological activity on Meloidogyne icognita (Nematoda)
A 1:1 mixture of field soil and sand, infested with newborne larvae and eggs of Nematoda, were treated, by uniform admixing, with an aqueous dispersion of the products under examination (see Tables 4 and 5). The soil was then distributed into plastic pots, and after 5 days in each pot there were planted 5 small tomato plants about 20 cm high.
The results were recorded 21 days after the transplanting.
The nematocidal activity was expressed as the percentage reduction of infestation with respect to the witness (small plants transplanted into a non-treated soil, activity=0).

Hilemyia brassicae = assay: Biological activity on Hilemyia brassicae (Diptera); format: in vivo; conditions: Table 4
Description: (9) Biological activity on Hilemyia brassicae (Diptera)
Samples of soil were treated by uniform mixing with an aqueous dispersion of the products under examination (see Tables 4 and 5). The soil was then divided into two pots and in each of these 4 small radish plants were transplanted. The plants were subsequently infected by putting to the soil 50 Diptera eggs in the middle of the surface of the pots.
The results were recorded 10 days after treatment by extracting the plants from the soil and by counting the number of larvae present on the roots and on the surrounding soil.
The insecticidal activity was expressed as percentage of reduction of the infestation in comparison with the witness plants (plants transplanted into untreated soil, activity=0).

[2] = system: Leptinotarsa decemlineata; assay: Biological activity on Leptinotarsa decemlineata (Coleoptera); format: in vivo; conditions: for mortality at 0.01 %: 48 h, 0,1%o
Description: (3) Biological activity on Leptinotarsa decemlineata (Coleoptera)
Small potato plants grown in pots were infested with 4-day old larvae, and were then sprinkled with an aqueous dispersion of the products under examination (see Tables 4 and 5).
The mortality percentage (untreated small plants=0) was determined after 48 hours from treatment.

Tetranychus urticae = assay: Biological activity on adults of Tetranychus urticae (Acari); format: in vivo; conditions: for mortality at 0.0005 %: 24 h, 0,005%o
Description: (5) Biological activity on adults of Tetranychus urticae (Acari)
Discs of bean leaves were infested with adult acari and then sprinkled with an aqueous dispersion of the products under examination (see Tables 4 and 5).
The mortality percentage was determined after 24 hours from treatment (untreated leaf discs, mortality=0).

Blatta orientalis = assay: Biological activity on Blatta orientalis (Ortoptera); format: in vivo; conditions: for % ge of activity, Blatta o.: Table 4, 2880 min; for mortality at 0.01 g/m2 / mortality at 1 g/m2: Blatta orientalis, 48 h, read-out: Activity (mortality class), Blatta O.
Description: (10) Biological activity on Blatta orientalis (Ortoptera)
The bottom and walls of glass crystallizers were treated uniformly with an acetonic solution of the products under examination (see Tables 4 and 5). After evaporation of the solvent, into each crystallizer were introduced ten 80-100 days old neanides. The crystallizers were then closed with a metal net cover. After 24 hours from the start of the treatment, the insects were transferred to similar untreated crystallizers, and there were appropriately nourished in conventional manner.
The percentage of mortality (untreated insects=0) was determined after 48 hours from the start of the treatment.

[3] = system: orthoptera, lepidoptera, coleoptera, diptera, nematoda and acari; assay: Comparison of the insecticidal, acaricidal and nematocidal activities; format: in vivo; conditions: M 8174 vs M 8172 (Table 4); Tables 4 and 5
Excerpt: Of this material (M 8172) we have estimated the effects on various arthropods at decreasing doses, together with effects shown by a representative compound of the class described by us in this invention (M 8174).

Locusta M. = assay: Activity on Locusta M.; conditions: in vivo
warm-blooded animals = assay: Toxicity toward warm-blooded animals / mammals; format: in vivo
[4] = 0.01%o, Table 5, read-out: Activity (mortality class), Pieris B.
[5] = 24 h, 0,02 ppm, Table 4, read-out: % ge of activity, Culex p.
[6] = Table 4, read-out: % ge of activity, Culex p.
[7] = 24 h, 0.02 ppm, Table 5, read-out: Activity (mortality class), Culex P. (larvae)
[8] = 24 h, Table 5, read-out: Activity (mortality class), Culex P. (larvae)
[9] = Table 4, read-out: % ge of activity, Spodoptera l.
[10] = 48 h, 0,05%o, Table 4, read-out: % ge of activity, Spodoptera l.
[11] = Table 4, read-out: % ge of activity, Leptinotarsa d.
[12] = 48 h, 0,05%o, Table 4, read-out: % ge of activity, Leptinotarsa d.
[13] = 24 h, 0,01%o, Table 4, read-out: % ge of activity, Tetranycus u. (ad.)
[14] = 24 h, 0.01%o, Table 5, read-out: Activity (mortality class), Tetranychus U. (adults)
[15] = Table 4, read-out: % ge of activity, Tetranycus u. (ad.)
[16] = read-out: Activity (mortality class), Pieris B.
[17] = 48 h, read-out: Activity (mortality class), Spodoptera L.
[18] = 48 h, read-out: Activity (mortality class), Leptinotarsa D.
[19] = 24 h, read-out: Activity (mortality class), Tetranychus U. (adults)

Structure (SMILES)	mortality at 0.001 % (Pieris brassicae; [4]) [%]	mortality at 0.02 ppm (Culex pipiens; [5]) [%]	mortality at 0.2 ppm (Culex pipiens; [6]) [%]	mortality at 0.02 ppm (Culex pipiens; [7]) [%]	mortality at 2 ppm (Culex pipiens; [8]) [%]	LD50 [1] [mg/kg]	mortality at 0.01 % (Spodoptera littoralis; [9]) [%]	mortality at 0.005 % (Spodoptera littoralis; [10]) [%]	% ge of activity, Meloidogyne i. (Meloidogyne icognita) [%]	% ge of activity, Hylemyia b. (Hilemyia brassicae; 2 ppm) [%]	% ge of activity, Hylemyia b. (Hilemyia brassicae; 10 ppm) [%]	mortality at 0.01 % [2, 11] [%]	mortality at 0.005 % [2, 12] [%]	mortality at 0.001 % (Tetranychus urticae; [13]) [%]	mortality at 0.001 % (Tetranychus urticae; [14]) [%]	mortality at 0.0005 % (Tetranychus urticae; [15]) [%]	% ge of activity, Blatta o. (Blatta orientalis; 0,01 g/m^2) [%]	% ge of activity, Blatta o. (Blatta orientalis; 0,1 g/m^2) [%]	mortality at 0.01 g/m2 (Blatta orientalis; 0,01 g/m^2, Table 5) [%]	mortality at 0.005 % (Spodoptera littoralis; [17]) [%]	also measured
CCOP(=S)(OCC)Oc1nc(C=C(Cl)Cl)nn1C [M 8174]	100	100	100	100	100	1600	100	90	100	100	100	100	100	100	100	100	100	100	100		mortality at 0.1 % (Pieris brassicae; 1%o, Table 5, read-out: Activity (mortality class), Pieris B.): 100%; mortality at 0.005 % (Spodoptera littoralis; 48 h, 0.05%o, Table 5, read-out: Activity (mortality class), Spodoptera L.): 100%; mortality at 0.1 % (Spodoptera littoralis; 48 h, 1%o, Table 5, read-out: Activity (mortality class), Spodoptera L.): 100%; mortality at 0.005 % ([2]; 48 h, 0.05%o, Table 5, read-out: Activity (mortality class), Leptinotarsa D.): 100%; mortality at 0.1 % ([2]; 48 h, 1%o, Table 5, read-out: Activity (mortality class), Leptinotarsa D.): 100%; mortality at 0.1 % (Tetranychus urticae; 24 h, 1%o, Table 5, read-out: Activity (mortality class), Tetranychus U. (adults)): 100%; mortality at 1 g/m2 (Blatta orientalis; 1 g/m^2, Table 5): 100%; activity in words [3]: significantly better activity
CCOP(=S)(OCC)Oc1nc(C(Cl)=C(Cl)Cl)nn1C [M 8560]				10 to 69	100	1200									100					70 to 99	mortality at 0.001 % (Pieris brassicae; [16]): 70 to 99%; mortality at 0.1 % (Pieris brassicae; [16]): 100%; mortality at 0.1 % (Spodoptera littoralis; [17]): 100%; mortality at 0.005 % [2, 18]: 100%; mortality at 0.1 % [2, 18]: 100%; mortality at 0.1 % (Tetranychus urticae; [19]): 100%; mortality at 1 g/m2 (Blatta orientalis): 100%
CCOP(=S)(OCC)Oc1nc(-c2ccccc2)nn1C [M 8172, 0,0-diethyl-0-[1-methyl-3-phenyl-1,2,4-triazolyl(5)]-thiophosphate, reference compound]	0 to 9	0	100				100	15	40	48	98	92	10	96		76	20	100	10 to 69	10 to 69	mortality at 0.02 ppm (Culex pipiens; 24 h, read-out: Activity (mortality class), Culex P. (larvae)): 0 to 9%; Activity (mortality class), Locusta M. (Locusta M.): + (70-99% of mort.); toxicity in words (warm-blooded animals): low toxicity towards mammals; mortality at 0.005 % [2, 18]: 10 to 69%; mortality at 0.001 % (Tetranychus urticae; [19]): 70 to 99%
